Data reported in US11208412B2 (DAEGU-GYEONGBUK MEDICAL INNOVATION FOUNDATION, priority 2017, dated 2021).

Assays:
Assay in all cases: Kinase selectivity, DiscoverX scanMAX Kinase assay panel (% control)
Assay type in all cases: binding
[1] = biological target: T1, kinases of the scanMAX Kinase assay panel (Homo sapiens, UniProt P53350); settings: PLK1; 1 uM
T1 construct: purchased DiscoverX Co. (contract measurement) scanMAX Kinase assay panel
Summary of the method: (§1)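 Single-point screen, 1 uM cpd in DMSO. % ctrl = (cpd − pos ctrl)/(neg ctrl − pos ctrl)×100; pos ctrl = 0%, DMSO neg ctrl = 100%. Hit cutoff <35%.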

[2] = biological target: T2, kinases of the scanMAX Kinase assay panel (Homo sapiens, UniProt Q7L7X3); settings: kinase TAOK1; 1 uM in DMSO
T2 construct: purchased DiscoverX Co. (contract measurement) scanMAX Kinase assay panel
T2 sequence (Q7L7X3 1-1001): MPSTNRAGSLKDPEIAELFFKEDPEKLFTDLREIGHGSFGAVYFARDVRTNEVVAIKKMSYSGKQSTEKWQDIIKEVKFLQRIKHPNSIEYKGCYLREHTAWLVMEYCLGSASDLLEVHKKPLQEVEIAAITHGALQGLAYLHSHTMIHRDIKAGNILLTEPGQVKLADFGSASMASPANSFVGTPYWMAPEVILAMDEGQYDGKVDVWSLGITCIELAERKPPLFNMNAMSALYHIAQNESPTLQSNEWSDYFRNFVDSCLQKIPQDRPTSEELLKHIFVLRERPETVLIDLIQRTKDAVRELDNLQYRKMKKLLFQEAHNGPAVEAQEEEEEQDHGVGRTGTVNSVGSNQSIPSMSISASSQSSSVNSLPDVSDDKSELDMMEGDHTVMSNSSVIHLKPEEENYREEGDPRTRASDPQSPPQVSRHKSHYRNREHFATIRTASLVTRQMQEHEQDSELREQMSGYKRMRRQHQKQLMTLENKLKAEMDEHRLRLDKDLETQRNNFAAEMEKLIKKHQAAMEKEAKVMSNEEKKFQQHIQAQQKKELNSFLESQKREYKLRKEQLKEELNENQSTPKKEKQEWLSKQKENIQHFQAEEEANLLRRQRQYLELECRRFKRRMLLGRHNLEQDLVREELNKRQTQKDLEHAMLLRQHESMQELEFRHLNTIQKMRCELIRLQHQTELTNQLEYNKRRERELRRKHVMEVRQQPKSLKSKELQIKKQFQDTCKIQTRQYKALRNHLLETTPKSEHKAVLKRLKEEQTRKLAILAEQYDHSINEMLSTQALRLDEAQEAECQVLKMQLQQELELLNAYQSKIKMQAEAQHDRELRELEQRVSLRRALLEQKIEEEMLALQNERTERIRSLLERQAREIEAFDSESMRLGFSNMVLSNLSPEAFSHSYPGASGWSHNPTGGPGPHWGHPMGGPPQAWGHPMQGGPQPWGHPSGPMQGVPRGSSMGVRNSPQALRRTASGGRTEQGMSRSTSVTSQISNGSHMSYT
Summary of the method: as §1

[3] = biological target: T3, kinases of the scanMAX Kinase assay panel (Homo sapiens, UniProt Q9H4B4); settings: PLK3; 1 uM
T3 construct: purchased DiscoverX Co. (contract measurement) scanMAX Kinase assay panel
Summary of the method: as §1

[4] = biological target: T4, kinases of the scanMAX Kinase assay panel (Homo sapiens, UniProt P32298); settings: GRK4; 1 uM
T4 construct: purchased DiscoverX Co. (contract measurement) scanMAX Kinase assay panel
Summary of the method: as §1

[5] = biological target: T5, kinases of the scanMAX Kinase assay panel (Homo sapiens, UniProt Q9HBY8); settings: kinase SGK2; 1 uM in DMSO
T5 construct: purchased DiscoverX Co. (contract measurement) scanMAX Kinase assay panel
T5 sequence (Q9HBY8 1-367): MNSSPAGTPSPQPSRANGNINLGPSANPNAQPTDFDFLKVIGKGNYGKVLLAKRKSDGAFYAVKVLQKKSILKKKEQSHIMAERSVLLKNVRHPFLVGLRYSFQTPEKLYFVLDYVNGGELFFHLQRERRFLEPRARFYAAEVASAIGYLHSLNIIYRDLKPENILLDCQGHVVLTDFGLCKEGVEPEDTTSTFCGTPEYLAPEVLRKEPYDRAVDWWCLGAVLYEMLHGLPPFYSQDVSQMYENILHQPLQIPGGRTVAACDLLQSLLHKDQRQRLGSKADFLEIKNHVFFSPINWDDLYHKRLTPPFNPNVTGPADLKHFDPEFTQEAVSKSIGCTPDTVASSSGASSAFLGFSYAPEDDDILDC
Summary of the method: as §1

[6] = biological target: T6, kinases of the scanMAX Kinase assay panel (Homo sapiens, UniProt Q2M2I8); settings: AAK1; 1 uM
T6 construct: purchased DiscoverX Co. (contract measurement) scanMAX Kinase assay panel
Summary of the method: as §1

T1 sequence (P53350 whole entry): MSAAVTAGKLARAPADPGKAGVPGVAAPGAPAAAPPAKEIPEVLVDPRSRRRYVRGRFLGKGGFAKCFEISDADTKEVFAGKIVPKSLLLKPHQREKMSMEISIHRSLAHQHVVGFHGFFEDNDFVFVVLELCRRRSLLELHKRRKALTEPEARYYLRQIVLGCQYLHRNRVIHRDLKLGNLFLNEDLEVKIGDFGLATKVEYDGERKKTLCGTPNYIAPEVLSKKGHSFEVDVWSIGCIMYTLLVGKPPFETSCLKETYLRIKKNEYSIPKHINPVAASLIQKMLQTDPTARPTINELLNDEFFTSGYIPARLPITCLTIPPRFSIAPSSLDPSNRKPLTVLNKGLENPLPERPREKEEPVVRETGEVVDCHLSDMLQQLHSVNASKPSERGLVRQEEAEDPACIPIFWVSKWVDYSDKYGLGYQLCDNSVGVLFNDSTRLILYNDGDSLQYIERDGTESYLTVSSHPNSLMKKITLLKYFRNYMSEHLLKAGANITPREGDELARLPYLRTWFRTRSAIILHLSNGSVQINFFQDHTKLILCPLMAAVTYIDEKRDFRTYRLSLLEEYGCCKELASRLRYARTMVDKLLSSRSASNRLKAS
T6 sequence (Q2M2I8 whole entry): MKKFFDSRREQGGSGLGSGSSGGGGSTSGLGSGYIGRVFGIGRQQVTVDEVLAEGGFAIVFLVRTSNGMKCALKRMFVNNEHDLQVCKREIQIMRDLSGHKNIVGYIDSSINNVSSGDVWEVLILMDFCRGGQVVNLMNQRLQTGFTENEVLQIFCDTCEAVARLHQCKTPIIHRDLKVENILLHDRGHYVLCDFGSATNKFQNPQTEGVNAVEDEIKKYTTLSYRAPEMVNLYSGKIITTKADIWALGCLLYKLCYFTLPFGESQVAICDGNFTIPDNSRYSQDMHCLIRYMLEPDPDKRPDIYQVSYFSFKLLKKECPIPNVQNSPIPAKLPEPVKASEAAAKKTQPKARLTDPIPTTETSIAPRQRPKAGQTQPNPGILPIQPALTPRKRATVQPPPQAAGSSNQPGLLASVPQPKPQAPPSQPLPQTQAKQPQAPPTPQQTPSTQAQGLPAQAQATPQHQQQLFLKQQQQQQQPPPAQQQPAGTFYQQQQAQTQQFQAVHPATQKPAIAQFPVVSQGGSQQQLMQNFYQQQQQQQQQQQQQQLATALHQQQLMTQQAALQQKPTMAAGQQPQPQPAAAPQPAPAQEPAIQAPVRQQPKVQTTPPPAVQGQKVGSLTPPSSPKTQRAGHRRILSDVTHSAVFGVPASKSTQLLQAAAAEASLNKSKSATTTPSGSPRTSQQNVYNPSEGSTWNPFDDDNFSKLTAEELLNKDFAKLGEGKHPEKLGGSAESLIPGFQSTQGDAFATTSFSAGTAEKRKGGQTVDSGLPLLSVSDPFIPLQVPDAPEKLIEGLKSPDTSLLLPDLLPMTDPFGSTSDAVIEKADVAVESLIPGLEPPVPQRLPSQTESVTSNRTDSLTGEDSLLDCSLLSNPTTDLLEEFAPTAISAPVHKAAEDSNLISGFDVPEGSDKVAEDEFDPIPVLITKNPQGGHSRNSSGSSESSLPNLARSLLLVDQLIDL
T3 sequence (Q9H4B4 whole entry): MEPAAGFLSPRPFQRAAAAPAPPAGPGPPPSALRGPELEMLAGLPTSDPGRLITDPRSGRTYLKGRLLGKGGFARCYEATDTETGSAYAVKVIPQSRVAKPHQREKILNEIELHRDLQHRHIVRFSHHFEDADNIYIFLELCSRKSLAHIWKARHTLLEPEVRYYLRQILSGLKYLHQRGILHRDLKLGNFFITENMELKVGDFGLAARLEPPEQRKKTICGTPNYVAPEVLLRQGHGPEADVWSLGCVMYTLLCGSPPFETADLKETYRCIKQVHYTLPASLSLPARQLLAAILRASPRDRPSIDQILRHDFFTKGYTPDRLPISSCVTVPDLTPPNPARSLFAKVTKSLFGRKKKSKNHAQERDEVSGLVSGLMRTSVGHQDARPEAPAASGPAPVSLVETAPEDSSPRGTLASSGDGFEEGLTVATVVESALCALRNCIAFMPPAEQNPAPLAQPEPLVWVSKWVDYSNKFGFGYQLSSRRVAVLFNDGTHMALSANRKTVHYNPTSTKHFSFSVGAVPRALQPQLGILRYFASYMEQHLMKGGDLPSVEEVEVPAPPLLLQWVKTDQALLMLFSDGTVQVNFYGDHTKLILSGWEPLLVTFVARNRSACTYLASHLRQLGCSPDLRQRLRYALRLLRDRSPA
T4 sequence (P32298 whole entry): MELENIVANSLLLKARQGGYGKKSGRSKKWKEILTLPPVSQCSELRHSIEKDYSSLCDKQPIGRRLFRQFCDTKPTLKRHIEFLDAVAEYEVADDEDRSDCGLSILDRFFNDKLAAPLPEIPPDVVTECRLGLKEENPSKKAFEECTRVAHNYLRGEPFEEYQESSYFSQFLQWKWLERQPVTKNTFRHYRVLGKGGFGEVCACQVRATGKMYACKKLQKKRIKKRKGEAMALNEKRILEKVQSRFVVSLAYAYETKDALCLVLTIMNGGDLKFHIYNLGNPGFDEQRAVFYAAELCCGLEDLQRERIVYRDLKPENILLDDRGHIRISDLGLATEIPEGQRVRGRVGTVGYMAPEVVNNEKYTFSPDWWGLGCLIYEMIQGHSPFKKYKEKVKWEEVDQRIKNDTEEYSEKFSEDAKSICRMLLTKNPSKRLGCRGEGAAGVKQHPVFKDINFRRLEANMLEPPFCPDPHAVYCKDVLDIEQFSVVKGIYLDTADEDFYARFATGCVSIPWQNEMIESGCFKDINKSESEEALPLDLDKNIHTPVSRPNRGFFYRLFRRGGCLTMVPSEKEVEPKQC

SMILES	remaining binding at 1 µM [1] [%]	remaining binding at 1 µM [2] [%]	remaining binding at 1 µM [3] [%]	remaining binding at 1 µM [4] [%]	remaining binding at 1 µM [5] [%]	remaining binding at 1 µM [6] [%]
CCNc1nc(Nc2ccc(C(=O)N3CCC(N4CCOCC4)CC3)cc2OC)nc2[nH]cc(C(F)(F)F)c12 [Example 104, (4-((4-(ethylamino)-5-(trifluoromethyl)-7H-pyrrolo[2,3-d]pyrimidine-2-yl)amino)-3-methoxyphenyl)(4-morpholinopiperidine-1-yl)methanone]	65	85	89	100	100	90
CC1(Nc2nc(Nc3cnn([C@H]4CCN(C5COC5)C[C@@H]4F)c3Cl)nc3[nH]cc(C#N)c23)CC1 [Example 52, 2-((5-chloro-1-((3S,4S)-3-fluoro-1-(oxetane-3-yl)piperidine-4-yl)-1H-pyrazole-4-yl)amino)((1-methylcyclopropyl)amino)-7H-pyrrolo[2,3-d]pyrimidine-5-carbonitrile]	100	6.5	99	1.6	74	9.6
CNc1nc(Nc2ccc(C(=O)N3CCOCC3)cc2OC)nc2[nH]cc(C#N)c12 [Example 1, 2-((2-methoxy-4-(morpholine-4-carbonyl)phenyl)amino)-4-(methylamino)-7H-pyrrolo[2,3-d]pyrimidine-5-carbonitrile]	14	73	57	92	82	78
